Assay results taken from patent US20260356823A1, “SODIUM CHANNEL REGULATOR AND USE THEREOF” (SHANGHAI HUILUN PHARMACEUTICAL CO., LTD., priority 2022, published 2026).

target: T1, human Nav1.8 (Homo sapiens, UniProt Q9Y5Y9); assay: In vitro inhibition of Nav1.8, manual patch clamp on HEK293 cells stably expressing human Nav1.8; type: cell-based; conditions: 100 nM, human Nav1.8, manual patch clamp
T1 construct: expressed in transfected cells
Description: Bioactivity Test 1: In Vitro Inhibition of Nav1.8 by the Compound
By using a manual patch clamp on HEK293 cells stably expressing human Nav1.8, currents on Nav1.8 before and after administration of the compound were compared after the currents on Nav1.8 were stable, to obtain the effect of the compound on the Nav1.8 channel.
The to-be-tested compound was dissolved in DMSO to prepare a 9 mM stock solution, which was taken and dissolved in extracellular fluid at a desired concentration on the day of testing. The extracellular fluid included the following ingredients (mM): NaCl, 137; KCl, 4; CaCl2, 1.8; MgCl2, 1; HEPES, 10; glucose, 10; and pH 7.4 (NaOH titration). All reagents were purchased from Sigma (St. Louis, MO).
The cells were clamped at −80 mV and depolarized with a sustained 10 ms square wave to 10 mV to obtain a current on Nav1.8. This process was repeated every 5 seconds. A maximum current caused by the square wave was detected. After the current is stable, the to-be-tested compound (dissolved in the extracellular fluid at the desired concentration) was perfused. After the current is stable, the strength of blocking Nav1.8 by the compound was calculated based on the currents before and after perfusion of the compound. pCLAMP 10 (Molecular Devices, Union City, CA) was used. That the current is stable means that the current changes over time within a limited range.

T1 sequence (Q9Y5Y9 whole entry): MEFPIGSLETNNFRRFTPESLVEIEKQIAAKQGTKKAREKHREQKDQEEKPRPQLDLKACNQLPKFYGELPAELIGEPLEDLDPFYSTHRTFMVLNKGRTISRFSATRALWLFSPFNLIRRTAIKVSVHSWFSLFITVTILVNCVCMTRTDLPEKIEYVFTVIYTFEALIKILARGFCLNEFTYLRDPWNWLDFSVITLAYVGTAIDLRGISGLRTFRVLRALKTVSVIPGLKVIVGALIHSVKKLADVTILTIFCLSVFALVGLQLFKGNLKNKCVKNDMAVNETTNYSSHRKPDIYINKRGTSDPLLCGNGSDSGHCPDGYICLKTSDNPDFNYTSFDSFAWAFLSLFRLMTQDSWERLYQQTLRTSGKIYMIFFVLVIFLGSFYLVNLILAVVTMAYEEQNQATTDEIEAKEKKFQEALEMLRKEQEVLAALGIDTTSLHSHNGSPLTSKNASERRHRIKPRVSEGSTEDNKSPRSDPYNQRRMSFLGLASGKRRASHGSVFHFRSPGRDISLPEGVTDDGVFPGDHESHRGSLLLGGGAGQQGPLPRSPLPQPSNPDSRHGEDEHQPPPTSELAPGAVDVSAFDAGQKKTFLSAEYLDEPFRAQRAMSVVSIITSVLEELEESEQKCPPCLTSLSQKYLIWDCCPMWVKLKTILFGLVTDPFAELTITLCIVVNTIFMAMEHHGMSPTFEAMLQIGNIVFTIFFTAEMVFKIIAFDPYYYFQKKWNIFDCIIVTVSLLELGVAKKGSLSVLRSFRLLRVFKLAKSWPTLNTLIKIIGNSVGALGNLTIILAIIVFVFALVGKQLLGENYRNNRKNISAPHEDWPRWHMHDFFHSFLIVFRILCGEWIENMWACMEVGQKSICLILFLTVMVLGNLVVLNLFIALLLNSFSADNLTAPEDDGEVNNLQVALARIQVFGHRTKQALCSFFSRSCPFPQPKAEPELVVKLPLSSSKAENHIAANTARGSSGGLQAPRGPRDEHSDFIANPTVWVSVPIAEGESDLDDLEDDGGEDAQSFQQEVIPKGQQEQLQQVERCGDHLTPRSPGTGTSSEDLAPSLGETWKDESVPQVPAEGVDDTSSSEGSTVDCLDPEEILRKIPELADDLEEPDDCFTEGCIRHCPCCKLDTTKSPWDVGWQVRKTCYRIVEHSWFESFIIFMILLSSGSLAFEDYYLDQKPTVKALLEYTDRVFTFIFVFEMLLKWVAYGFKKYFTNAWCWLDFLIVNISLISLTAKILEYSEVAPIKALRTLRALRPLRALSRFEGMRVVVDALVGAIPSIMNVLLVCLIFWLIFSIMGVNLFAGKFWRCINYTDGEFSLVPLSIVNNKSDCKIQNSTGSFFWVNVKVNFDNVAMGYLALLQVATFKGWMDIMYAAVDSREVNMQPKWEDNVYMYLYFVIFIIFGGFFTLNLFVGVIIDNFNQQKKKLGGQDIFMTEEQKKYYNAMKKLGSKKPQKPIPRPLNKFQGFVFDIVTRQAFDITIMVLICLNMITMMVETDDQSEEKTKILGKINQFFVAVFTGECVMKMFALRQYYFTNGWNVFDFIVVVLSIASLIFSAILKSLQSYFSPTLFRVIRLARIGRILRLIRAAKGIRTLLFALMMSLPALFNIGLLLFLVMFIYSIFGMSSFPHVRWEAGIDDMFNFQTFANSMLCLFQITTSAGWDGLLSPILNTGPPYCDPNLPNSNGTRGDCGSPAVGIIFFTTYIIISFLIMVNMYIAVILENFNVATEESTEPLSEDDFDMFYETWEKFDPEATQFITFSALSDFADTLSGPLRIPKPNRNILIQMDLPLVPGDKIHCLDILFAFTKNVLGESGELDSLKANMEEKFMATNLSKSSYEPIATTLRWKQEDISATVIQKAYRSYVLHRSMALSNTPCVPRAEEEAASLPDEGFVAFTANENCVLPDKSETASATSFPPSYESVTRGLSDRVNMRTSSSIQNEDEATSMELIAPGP

Inhibitory activity (inhibition/% at 100 nM concentration) | Compound
A (A ≥ 50) | rel-(2R,3S,4S,5R)-3-(3,4-difluoro-2-methoxyphenyl)-4,5-dimethyl-N-(4-oxo-3H-quinazolin-6-yl)-5-(trifluoromethyl)tetrahydrofuran-2-carboxamide [Example 4]

same assay, conditions: HEK293, 100 nM, human Nav1.8, manual patch clamp, read-out: Inhibitory activity (inhibition/% at 100 nM concentration)

inhibition at 0.1 µM [%] | Compound
≥ 50 | COc1c([C@H]2C(C(=O)Nc3ccnc(OC[C@H](O)CO)c3)O[C@]3(C(F)(F)F)CC[C@]23C)ccc(F)c1F (relative stereo) [Example 96, rel-(1R,3R,4S,5R)-4-(3,4-difluoro-2-methoxyphenyl)-N-(2-(R)-2,3-dihydroxypropoxypyridin-4-yl)-5-methyl-1-trifluoromethyl-2-oxabicyclo[3.2.0]heptane-3-carboxamide]
≥ 50 | COc1c([C@H]2C(C(=O)Nc3ccnc(S(C)(=N)=O)c3)O[C@]3(C(F)(F)F)CC[C@]23C)ccc(F)c1F (relative stereo) [Example 93, rel-(1R,3R,4S,5R)-4-(3,4-difluoro-2-methoxyphenyl)-5-methyl-N-(2-(S-methylsulfoximine)pyridin-4-yl)-1-(trifluoromethyl)-2-oxabicyclo[3.2.0]heptane-3-carboxamide]
≥ 50 | COc1c([C@H]2[C@H](C(=O)Nc3ccc4c(c3)C(=O)NC4)O[C@@](C)(C(F)(F)F)[C@H]2C)ccc(F)c1F (relative stereo) [Example 1, rel-(2R,3S,4S,5R)-3-(3,4-difluoro-2-methoxyphenyl)-4,5-dimethyl-N-(3-oxoisoindolin-5-yl)-5-(trifluoromethyl)tetrahydrofuran-2-carboxamide]
≥ 50 | COc1c([C@H]2[C@H](C(=O)Nc3ccc(C#N)c(C(N)=O)c3)O[C@@](C)(C(F)(F)F)[C@H]2C)ccc(F)c1F (relative stereo) [Example 25, rel-(2R,3S,4S,5R)—N-(3-carbamoyl-4-cyanophenyl)-3-(3,4-difluoro-2-methoxyphenyl)-4,5-dimethyl-5-(trifluoromethyl)tetrahydrofuran-2-carboxamide]
≥ 50 | COc1c([C@H]2[C@H](C(=O)Nc3cc(F)[nH]c(=O)c3)O[C@@](C)(C(F)(F)F)[C@H]2C)ccc(F)c1F (relative stereo) [Example 24, rel-(2R,3S,4S,5R)-3-(3,4-difluoro-2-methoxyphenyl)-N-(6-fluoro-2-oxo-1H-pyridin-4-yl)-4,5-dimethyl-5-(trifluoromethyl)tetrahydrofuran-2-carboxamide]
≥ 50 | COc1c([C@H]2[C@H](C(=O)Nc3ccnc(C(N)=S)c3)O[C@@](C)(C(F)(F)F)[C@H]2C)ccc(F)c1F (relative stereo) [Example 22, rel-(2R,3S,4S,5R)—N-[2-(aminothiomethylidene)pyridin-4-yl]-3-(3,4-difluoro-2-methoxyphenyl)-4,5-dimethyl-5-(trifluoromethyl)tetrahydrofuran-2-carboxamide]
≥ 50 | COc1c([C@H]2[C@H](C(=O)Nc3ccc4c(c3)C(=O)NC4=O)O[C@@](C)(C(F)(F)F)[C@H]2C)ccc(F)c1F (relative stereo) [Example 10, rel-(2R,3S,4S,5R)-3-(3,4-difluoro-2-methoxyphenyl)-N-(1,3-dioxo-2,3-dihydro-1H-isoindol-5-yl)-4,5-dimethyl-5-(trifluoromethyl)tetrahydrofuran-2-carboxamide]
≥ 50 | COc1c([C@H]2[C@H](C(=O)Nc3ccc4c(=O)[nH][nH]c(=O)c4c3)O[C@@](C)(C(F)(F)F)[C@H]2C)ccc(F)c1F (relative stereo) [Example 12]
≥ 50 | COc1c([C@H]2[C@H](C(=O)Nc3ccc4c(c3)CNC4=O)O[C@@](C)(C(F)(F)F)[C@H]2C)ccc(F)c1F (relative stereo) [Example 8, rel-(2R,3S,4S,5R)-3-(3,4-difluoro-2-methoxyphenyl)-4,5-dimethyl-N-(1-oxo-2,3-dihydro-1H-isoindol-5-yl)-5-(trifluoromethyl)tetrahydrofuran-2-carboxamide]
≥ 50 | COc1c([C@H]2[C@H](C(=O)Nc3ccnc(C(O)CF)c3)O[C@]3(C(F)(F)F)CC[C@]23C)ccc(F)c1F (relative stereo) [Example 89, rel-(1R,3R,4S,5R)-4-(3,4-difluoro-2-methoxyphenyl)-N-(2-(2-fluoro-1-hydroxyethyl)pyridin-4-yl)-5-methyl-1-(trifluoromethyl)-2-oxabicyclo[3.2.0]heptane-3-carboxamide]
≥ 50 | COc1c([C@H]2[C@H](C(=O)Nc3ccnc(N4CCN(C)CC4=O)c3)O[C@]3(C(F)(F)F)CC[C@]23C)ccc(F)c1F (relative stereo) [Example 100, rel-(1R,3R,4S,5R)-4-(3,4-difluoro-2-methoxyphenyl)-5-methyl-N-(2-(4-methyl-2-oxopiperazin-1-yl)pyridin-4-yl)-1-(trifluoromethyl)-2-oxabicyclo[3.2.0]heptane-3-carboxamide]
≥ 50 | CN=S(C)(=O)c1cc(NC(=O)C2O[C@]3(C(F)(F)F)CC[C@]3(C)[C@H]2c2ccc(F)c(F)c2OC)ccn1 (relative stereo) [Example 94, rel-(1R,3R,4S,5R)-4-(3,4-difluoro-2-methoxyphenyl)-N-(2-(N,S-dimethylsulfonyl)pyridin-4-yl)-5-methyl-1-(trifluoromethyl)-2-oxabicyclo[3.2.0]heptane-3-carboxamide]
≥ 50 | COc1c([C@H]2[C@H](C(=O)Nc3ccc4c(c3)S(=O)(=O)NC4)O[C@@](C)(C(F)(F)F)[C@H]2C)ccc(F)c1F (relative stereo) [Example 9, rel-(2R,3S,4S,5R)-3-(3,4-difluoro-2-methoxyphenyl)-N-(1,1-dioxo-2,3-dihydrobenzo[d]isothiazol-6-yl)-4,5-dimethyl-5-(trifluoromethyl)tetrahydrofuran-2-carboxamide]
≥ 50 | COc1c(C2[C@H](C(=O)Nc3ccnc(S(=O)(=O)NCC(F)(F)F)c3)O[C@@](C)(C(F)(F)F)[C@H]2C)ccc(F)c1F (relative stereo) [Example 84, rel-(2R,3S,4S,5R)-3-(3,4-difluoro-2-methoxyphenyl)-4,5-dimethyl-N-(2-(N-(2,2,2-trifluoroethyl)sulfamoyl)pyridin-4-yl)-5-trifluoromethyl tetrahydrofuran-2-carboxamide]
≥ 50 | COc1c([C@H]2[C@H](C(=O)Nc3ccnc(S(C)(=O)=O)c3)O[C@]3(C(F)(F)F)CC[C@]23C)ccc(F)c1F (relative stereo) [Example 101, rel-(1R,3R,4S,5R)-4-(3,4-difluoro-2-methoxyphenyl)-5-methyl-N-(2-methylsulfonyl)pyridin-4-yl)-1-trifluoromethyl-2-oxabicyclo[3.2.0]heptane-3-carboxamide]
≥ 50 | COc1c([C@H]2C(C(=O)Nc3ccc(S(N)(=O)=O)nc3)O[C@]3(C(F)(F)F)CC[C@]23C)ccc(F)c1F (some centres unmarked) [Example 99]
≥ 50 | COc1c([C@H]2[C@H](C(=O)Nc3ccc(C(O)CO)nc3)O[C@]3(C(F)(F)F)CC[C@]23C)ccc(F)c1F (relative stereo) [Example 98, rel-(1R,3R,4S,5R)-4-(3,4-difluoro-2-methoxyphenyl)-N-(6-(1,2-dihydroxyethyl)pyridin-3-yl)-5-methyl-1-trifluoromethyl-2-oxabicyclo[3.2.0]heptane-3-carboxamide]
≥ 50 | COc1c(C2C(C(=O)Nc3ccc(C(N)=O)c(C(N)=O)c3)OC3(C(F)(F)F)CCC23C)ccc(F)c1F [Example 86, rel-4-((1R,3R,4S,5R)-4-(3,4-difluoro-2-methoxyphenyl)-5-methyl-1-(trifluoromethyl)-2-oxabicyclo[3.2.0]heptane-3-formylamino)phthalamide]
≥ 50 | COc1c([C@H]2[C@H](C(=O)Nc3ccnc4c(N)nccc34)O[C@@](C)(C(F)(F)F)[C@H]2C)ccc(F)c1F [Example 7]
≥ 50 | COc1c([C@H]2[C@H](C(=O)Nc3ccc(F)c(S(=O)(=O)Nc4cscn4)c3)O[C@]3(C(F)(F)F)CC[C@]23C)ccc(F)c1F (relative stereo) [Example 92, rel-(1R,3R,4S,5R)-4-(3,4-difluoro-2-methoxyphenyl)-N-(4-fluoro-3-(N-(thiazol-4-yl)aminosulfonyl)phenyl)-5-methyl-1-trifluoromethyl-2-oxabicyclo[3.2.0]heptane-3-carboxamide]
≥ 50 | COc1c([C@H]2[C@H](C(=O)Nc3ccc4c(c3)C(=O)OOC4N)O[C@@](C)(C(F)(F)F)[C@H]2C)ccc(F)c1F (relative stereo) [Example 13, rel-(2R,3S,4S,5R)—N-(1-amino-4-oxo-3H-benzo[2,1-d][1,2]dioxine-6-yl)-3-(3,4-difluoro-2-methoxyphenyl)-4,5-dimethyl-5-(trifluoromethyl)tetrahydrofuran-2-carboxamide]
≥ 50 | COc1c([C@H]2C(C(=O)Nc3ccc4c(c3)S(=O)(=O)NC4=O)O[C@@](C)(C(F)(F)F)[C@H]2C)ccc(F)c1F (relative stereo) [Example 79, rel-(2R,3S,4S,5)-3-(3,4-difluoro-2-methoxyphenyl)-4,5-dimethyl-5-(trifluoromethyl)-N-(1,1,3-trioxo-2,3-dihydro-1λ6-benzo[d][1,2]thiazol-6-yl)tetrahydrofuran-2-carboxamide]
